Read-outs that look alike come from different tables or passages of the source.
Experiments:
Assay type in all cases: in vivo
[1] = test system: Digitaria sanguinalis (DIGSA); experiment: Post-emergence herbicidal action against DIGSA; settings: visual rating about 3 weeks after treatment
Procedure, shortened: (§1)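 Values are percent visual activity (0% like control, 100% plants dead) after about 3 weeks in the greenhouse. Treatment: post-emergence spray at one-leaf stage, 600 l/ha spray volume, 0.5% additive, doses 320 g/ha or lower.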

[2] = test system: Matricaria inodora (MATIN); experiment: Post-emergence herbicidal action against MATIN
Procedure, shortened: as §1

[3] = test system: Digitaria sanguinalis (DIGSA); experiment: Pre-emergence herbicidal action against DIGSA
Procedure, shortened: (§2)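 Pre-emergence soil-surface spray, WP/EC formulation, 0.5% additive, 600 l/ha water, rates of 320 g/ha or lower. Greenhouse, ~3 wk. Visual score, % of untreated control (100% = plants dead, 0% = like control).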

[4] = test system: Echinochloa crus-galli (ECHCG); experiment: Post-emergence herbicidal action against ECHCG
Procedure, shortened: as §1

Viola tricolor (VIOTR) = experiment: Pre-emergence herbicidal action against VIOTR
Procedure, shortened: as §2

Avena fatua (AVEFA) = experiment: Post-emergence herbicidal action against AVEFA; settings: visual rating about 3 weeks after treatment
Procedure, shortened: as §1

Zea mays (ZEAMX) = settings: crop plant compatibility, effect vs untreated controls
Procedure, shortened: (§3)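 Greenhouse crops in sandy loam sprayed post-emergence at the one-leaf stage, 2–3 weeks after sowing, with WP or EC formulations in water plus 0.5% additive at 600 l/ha. Damage rated visually about 3 weeks later versus untreated controls (0% = like control, 100% = dead); suffixes a–c denote different doses.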

Oryza sativa (ORYSA) = settings: crop plant compatibility, 80 g/ha, effect in comparison to untreated controls
Procedure, shortened: as §3

[5] = 80 g/ha, visual scoring after about 3 weeks vs untreated controls

SMILES | Post-emergence action against DIGSA in % ([1]; 320 g/ha) [%] | Post-emergence action against MATIN in % ([2]; dosage 320 g/ha) [%] | Pre-emergence action against DIGSA in % [3, 5] [%] | Pre-emergence action against DIGSA in % ([3]; dosage 320 g/ha) [%] | Post-emergence action against ECHCG in % ([4]; dosage 320 g/ha) [%] | Pre-emergence action against VIOTR in % (Viola tricolor (VIOTR); 320 g/ha, Viola tricolor) [%] | Pre-emergence action against VIOTR in % (Viola tricolor (VIOTR); dosage 80 g/ha) [%] | Post-emergence action against AVEFA in % (Avena fatua (AVEFA); 80 g/ha) [%] | Post-emergence action against AVEFA in % (Avena fatua (AVEFA); 320 g/ha) [%] | Post-emergence action against MATIN in % ([2]; dosage 80 g/ha) [%] | Post-emergence action against ECHCG in % ([4]; dosage 80 g/ha) [%] | Post-emergence action against DIGSA in % ([1]; 80 g/ha) [%] | Post-emergence action against ZEAMX in % (Zea mays (ZEAMX); 80 g/ha) [%] | Post-emergence action against ZEAMX in % (Zea mays (ZEAMX); 320 g/ha) [%] | Post-emergence action against ORYSA in % (Oryza sativa (ORYSA)) [%]
COC(=O)[C@@H](C)Oc1nn(-c2ncccc2F)c(-c2ccc(F)nc2)c1Br [Example I-05, Methyl (2R)-2-{[4-bromo-1-(3-fluoropyridin-2-yl)-5-(6-fluoropyridin-3-yl)-1H-pyrazol-3-yl]oxy}propanoate] | 90 | 100 | 100 | 100 | 90 | 100 | 90 | 90 | 90 |  |  |  |  |  | 
O=C(O)COc1nn(-c2ncccc2F)c(-c2ccc(F)nc2)c1Br [Example I-08] | 90 | 90 | 100 | 100 | 90 | 100 | 100 | 80 | 90 | 90 | 80 |  |  |  | 
C[C@@H](Oc1nn(-c2ncccc2F)c(-c2ccc(F)nc2)c1Br)C(=O)O [Example I-10] | 90 |  | 100 | 100 | 80 | 100 | 100 | 80 | 90 |  |  | 90 | 0 | 20 | 
O=C(O)COc1nn(-c2nc(F)ccc2F)c(-c2cncc(F)c2)c1C1CC1 [Example I-148] | 90 | 80 | 90 | 100 | 80 | 100 | 100 |  | 80 | 80 | 80 | 80 |  |  | 
CCOC(=O)COc1nn(-c2nc(F)ccc2F)c(-c2cncc(F)c2)c1C1CC1 [Example I-149] | 90 | 90 | 90 | 100 | 80 | 100 | 100 |  | 80 | 80 | 80 | 80 |  |  | 
O=C(O)COc1nn(-c2ncccc2F)c(-c2cncc(F)c2)c1C1CC1 [Example I-175] | 90 |  | 100 | 100 | 80 | 100 | 100 | 80 | 80 |  | 80 | 90 |  |  | 20
COC(=O)[C@@H](C)COC(=O)COc1nn(-c2ccccn2)c(-c2cncc(F)c2)c1Br [Example I-194] | 90 |  | 90 | 100 | 80 | 100 |  |  | 90 |  | 80 | 80 |  |  | 20
CCOC(=O)[C@@H](C)Oc1nn(-c2nc(F)ccc2F)c(-c2cncc(F)c2)c1Cl [Example I-208] | 90 | 80 | 90 | 100 | 90 | 100 | 100 |  |  | 80 | 80 | 80 |  |  | 0
